Reference: ChEMBL document CHEMBL4507310, “Data for DCP probe A-1211212” (2021)

Columns and labels:
[1] = target: Serine/threonine-protein kinase 10 (Homo sapiens) (UniProt O94804); conditions: Compound concentration 1000.0 nM
[2] = target: SRSF protein kinase 1 (Homo sapiens) (UniProt Q96SB4); conditions: Compound concentration 1000.0 nM
[3] = target: Phosphatidylinositol 3-kinase catalytic subunit type 3 (Homo sapiens) (UniProt Q8NEB9); conditions: Compound concentration 1000.0 nM
[4] = system: Epidermal growth factor receptor (Homo sapiens), P00533 [UNDEFINED MUTATION]; conditions: Compound concentration 1000.0 nM
[5] = target: Serine/threonine-protein kinase 17B (Homo sapiens) (UniProt O94768); conditions: Compound concentration 1000.0 nM
[6] = system: Epidermal growth factor receptor (Homo sapiens), P00533 [UNDEFINED MUTATION]; conditions: Compound concentration 1000.0 nM; remark: listed apart in the source
[7] = target: Calcium/calmodulin-dependent protein kinase type II subunit delta (Homo sapiens) (UniProt Q13557); conditions: Compound concentration 1000.0 nM
[8] = target: Ephrin type-A receptor 1 (Homo sapiens) (UniProt P21709); conditions: Compound concentration 1000.0 nM
[9] = target: Serine/threonine-protein kinase RIO2 (Homo sapiens) (UniProt Q9BVS4); conditions: Compound concentration 1000.0 nM
[10] = target: Tyrosine-protein kinase TXK (Homo sapiens) (UniProt P42681); conditions: Compound concentration 1000.0 nM
[11] = system: Tyrosine-protein kinase ABL1 (Homo sapiens), P00519 [F317I]; conditions: Compound concentration 1000.0 nM
[12] = target: Activated CDC42 kinase 1 (Homo sapiens) (UniProt Q07912); conditions: Compound concentration 1000.0 nM
[13] = target: 5-hydroxytryptamine receptor 2A (Homo sapiens) (UniProt P28223); experiment: 5-HT2A (h) Eurofins-Cerep binding assay; set-up: ligand concentration 0.5 nM; conditions: filed as antagonist, Compound concentration 10.0 uM
[14] = target: Receptor-type tyrosine-protein kinase FLT3 (Homo sapiens) (UniProt P36888); conditions: Compound concentration 1000.0 nM
[15] = target: T1, GABA-A receptor; anion channel (Rattus norvegicus) (UniProt O09028+P15431+P18506+P18508+P19969+P20236+P23574+P23576+P28471+P28473+P30191+P62813+P63079+P63138+Q91ZM7+Q9ES14); conditions: Compound concentration 10.0 uM
[16] = target: Histamine H2 receptor (Homo sapiens) (UniProt P25021); conditions: Compound concentration 10.0 uM
[17] = target: Casein kinase II subunit alpha (Homo sapiens) (UniProt P68400); conditions: Compound concentration 1000.0 nM
[18] = target: Sodium/potassium-transporting ATPase (Sus scrofa) (UniProt P05027+P05024+D2WKD8+D2WKD7+F1ST41); experiment: ATPase (Na+/K+) Eurofins-Cerep enzyme and uptake assay; type: protein-complex assay; conditions: Compound concentration 10.0 uM
[19] = target: Phosphorylase b kinase gamma catalytic chain, skeletal muscle/heart isoform (Homo sapiens) (UniProt Q16816); conditions: Compound concentration 1000.0 nM
[20] = target: Mitogen-activated protein kinase 4 (Homo sapiens) (UniProt P31152); conditions: Compound concentration 1000.0 nM
[21] = system: Epidermal growth factor receptor (Homo sapiens), P00533 [L858R]; conditions: Compound concentration 1000.0 nM
[22] = target: Mitogen-activated protein kinase 3 (Homo sapiens) (UniProt P27361); conditions: Compound concentration 1000.0 nM
[23] = system: Tyrosine-protein kinase ABL1 (Homo sapiens), P00519 [M351T]; conditions: Compound concentration 1000.0 nM
[24] = system: Receptor-type tyrosine-protein kinase FLT3 (Homo sapiens), P36888 [D835V]; conditions: Compound concentration 1000.0 nM
[25] = target: Cyclin-dependent kinase 17 (Homo sapiens) (UniProt Q00537); conditions: Compound concentration 1000.0 nM
[26] = target: Myotonin-protein kinase (Homo sapiens) (UniProt Q09013); conditions: Compound concentration 1000.0 nM
[27] = target: Misshapen-like kinase 1 (Homo sapiens) (UniProt Q8N4C8); conditions: Compound concentration 1000.0 nM
[28] = target: T2, Alpha-2A adrenergic receptor (Homo sapiens) (UniProt P08913); conditions: Compound concentration 10.0 uM
T2 sequence (whole entry): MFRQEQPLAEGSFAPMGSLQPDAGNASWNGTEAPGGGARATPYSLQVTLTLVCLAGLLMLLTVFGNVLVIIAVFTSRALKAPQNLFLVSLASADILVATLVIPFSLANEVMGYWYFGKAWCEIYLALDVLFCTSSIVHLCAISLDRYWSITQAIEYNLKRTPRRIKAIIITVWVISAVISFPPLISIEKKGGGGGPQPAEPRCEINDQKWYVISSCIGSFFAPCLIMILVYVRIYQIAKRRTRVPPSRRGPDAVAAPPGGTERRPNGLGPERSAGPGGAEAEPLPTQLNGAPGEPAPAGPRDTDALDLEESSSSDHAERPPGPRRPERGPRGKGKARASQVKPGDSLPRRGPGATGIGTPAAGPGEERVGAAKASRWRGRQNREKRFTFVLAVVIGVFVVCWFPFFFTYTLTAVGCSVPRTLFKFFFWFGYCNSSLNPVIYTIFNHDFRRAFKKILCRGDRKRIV

[29] = target: LIM domain kinase 1 (Homo sapiens) (UniProt P53667); conditions: Compound concentration 1000.0 nM
[30] = target: LIM domain kinase 2 (Homo sapiens) (UniProt P53671); conditions: Compound concentration 1000.0 nM
[31] = target: T1, GABA-A receptor; anion channel (Rattus norvegicus); experiment: Cl- channel (GABA-gated) Eurofins-Cerep binding assay; type: protein-complex assay; set-up: ligand concentration 3 nM; conditions: filed as antagonist, Compound concentration 10.0 uM
[32] = target: Serine/threonine-protein kinase 4 (Homo sapiens) (UniProt Q13043); conditions: Compound concentration 1000.0 nM
[33] = target: Platelet-derived growth factor receptor beta (Homo sapiens) (UniProt P09619); conditions: Compound concentration 1000.0 nM
[34] = target: Melatonin receptor type 1B (Homo sapiens) (UniProt P49286); experiment: MT2 (ML1B) (h) Eurofins-Cerep binding assay; set-up: ligand concentration 0.05 nM; conditions: filed as agonist, Compound concentration 10.0 uM
[35] = target: High affinity nerve growth factor receptor (Homo sapiens) (UniProt P04629); conditions: Compound concentration 1000.0 nM

Sequence of Histamine H2 receptor (Homo sapiens) (P25021 whole entry): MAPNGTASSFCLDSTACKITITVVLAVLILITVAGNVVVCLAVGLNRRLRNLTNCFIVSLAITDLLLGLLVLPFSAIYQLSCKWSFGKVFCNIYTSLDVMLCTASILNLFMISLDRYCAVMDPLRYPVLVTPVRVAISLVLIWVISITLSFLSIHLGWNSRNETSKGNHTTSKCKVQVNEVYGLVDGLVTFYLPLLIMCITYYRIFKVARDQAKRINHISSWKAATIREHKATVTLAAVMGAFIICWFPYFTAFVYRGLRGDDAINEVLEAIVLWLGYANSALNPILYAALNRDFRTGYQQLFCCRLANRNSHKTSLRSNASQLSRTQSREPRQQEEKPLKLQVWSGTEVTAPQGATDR
Sequence of LIM domain kinase 2 (Homo sapiens) (P53671 whole entry, looked up, the tested form may be a part): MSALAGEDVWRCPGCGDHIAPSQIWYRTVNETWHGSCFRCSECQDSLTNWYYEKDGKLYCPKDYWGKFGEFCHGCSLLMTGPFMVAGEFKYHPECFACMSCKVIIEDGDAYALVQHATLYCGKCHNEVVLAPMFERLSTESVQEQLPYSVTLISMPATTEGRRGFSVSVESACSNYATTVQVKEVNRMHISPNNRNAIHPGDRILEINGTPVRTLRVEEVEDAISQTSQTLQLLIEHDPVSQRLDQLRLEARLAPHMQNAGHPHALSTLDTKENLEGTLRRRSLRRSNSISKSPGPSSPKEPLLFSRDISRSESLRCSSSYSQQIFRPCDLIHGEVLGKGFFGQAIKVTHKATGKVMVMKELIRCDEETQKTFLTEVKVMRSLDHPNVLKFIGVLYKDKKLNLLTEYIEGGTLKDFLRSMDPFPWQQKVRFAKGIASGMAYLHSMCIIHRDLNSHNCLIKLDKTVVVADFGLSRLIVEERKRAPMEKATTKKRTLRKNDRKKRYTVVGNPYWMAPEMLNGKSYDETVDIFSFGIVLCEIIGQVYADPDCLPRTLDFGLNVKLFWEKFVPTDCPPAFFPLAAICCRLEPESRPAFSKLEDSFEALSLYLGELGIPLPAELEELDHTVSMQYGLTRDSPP
Sequence of Serine/threonine-protein kinase 17B (Homo sapiens) (O94768 whole entry): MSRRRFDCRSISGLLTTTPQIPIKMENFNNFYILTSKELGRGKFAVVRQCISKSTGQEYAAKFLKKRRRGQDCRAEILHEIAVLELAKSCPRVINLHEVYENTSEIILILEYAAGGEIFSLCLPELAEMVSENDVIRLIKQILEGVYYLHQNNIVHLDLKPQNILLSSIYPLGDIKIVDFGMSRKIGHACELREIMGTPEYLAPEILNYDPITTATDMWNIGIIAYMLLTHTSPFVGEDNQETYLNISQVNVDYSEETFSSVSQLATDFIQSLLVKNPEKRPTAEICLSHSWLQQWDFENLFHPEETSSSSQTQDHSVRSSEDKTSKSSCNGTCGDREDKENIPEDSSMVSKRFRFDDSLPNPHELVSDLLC
Sequence of Tyrosine-protein kinase TXK (Homo sapiens) (P42681 whole entry): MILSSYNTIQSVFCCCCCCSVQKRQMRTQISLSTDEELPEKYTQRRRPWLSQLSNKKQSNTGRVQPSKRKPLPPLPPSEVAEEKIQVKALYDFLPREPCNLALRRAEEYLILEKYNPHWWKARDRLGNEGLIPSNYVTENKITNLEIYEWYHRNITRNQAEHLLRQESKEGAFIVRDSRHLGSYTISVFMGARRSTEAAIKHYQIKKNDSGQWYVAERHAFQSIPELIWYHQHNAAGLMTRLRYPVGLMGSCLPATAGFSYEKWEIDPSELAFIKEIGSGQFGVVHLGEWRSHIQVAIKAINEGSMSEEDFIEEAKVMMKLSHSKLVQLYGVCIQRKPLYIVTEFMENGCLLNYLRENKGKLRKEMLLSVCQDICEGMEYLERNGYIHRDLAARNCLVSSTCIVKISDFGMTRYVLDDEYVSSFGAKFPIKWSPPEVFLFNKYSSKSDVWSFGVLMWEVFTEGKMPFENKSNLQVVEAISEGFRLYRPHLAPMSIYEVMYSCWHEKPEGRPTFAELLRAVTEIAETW
Sequence of Calcium/calmodulin-dependent protein kinase type II subunit delta (Homo sapiens) (Q13557 whole entry): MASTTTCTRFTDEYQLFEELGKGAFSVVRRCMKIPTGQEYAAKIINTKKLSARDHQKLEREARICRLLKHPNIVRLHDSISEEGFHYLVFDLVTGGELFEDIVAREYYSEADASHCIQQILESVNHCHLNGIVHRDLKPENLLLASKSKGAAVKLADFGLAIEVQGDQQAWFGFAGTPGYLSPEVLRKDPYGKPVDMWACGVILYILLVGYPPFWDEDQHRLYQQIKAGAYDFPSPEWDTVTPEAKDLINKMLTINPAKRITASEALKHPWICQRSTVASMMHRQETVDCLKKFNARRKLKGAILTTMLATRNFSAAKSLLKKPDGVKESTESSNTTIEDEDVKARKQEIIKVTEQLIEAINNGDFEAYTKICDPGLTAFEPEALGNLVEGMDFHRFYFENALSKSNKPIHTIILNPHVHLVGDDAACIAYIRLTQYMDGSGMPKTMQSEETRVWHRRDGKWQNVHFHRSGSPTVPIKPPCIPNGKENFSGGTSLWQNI
Sequence of Serine/threonine-protein kinase RIO2 (Homo sapiens) (Q9BVS4 whole entry, looked up): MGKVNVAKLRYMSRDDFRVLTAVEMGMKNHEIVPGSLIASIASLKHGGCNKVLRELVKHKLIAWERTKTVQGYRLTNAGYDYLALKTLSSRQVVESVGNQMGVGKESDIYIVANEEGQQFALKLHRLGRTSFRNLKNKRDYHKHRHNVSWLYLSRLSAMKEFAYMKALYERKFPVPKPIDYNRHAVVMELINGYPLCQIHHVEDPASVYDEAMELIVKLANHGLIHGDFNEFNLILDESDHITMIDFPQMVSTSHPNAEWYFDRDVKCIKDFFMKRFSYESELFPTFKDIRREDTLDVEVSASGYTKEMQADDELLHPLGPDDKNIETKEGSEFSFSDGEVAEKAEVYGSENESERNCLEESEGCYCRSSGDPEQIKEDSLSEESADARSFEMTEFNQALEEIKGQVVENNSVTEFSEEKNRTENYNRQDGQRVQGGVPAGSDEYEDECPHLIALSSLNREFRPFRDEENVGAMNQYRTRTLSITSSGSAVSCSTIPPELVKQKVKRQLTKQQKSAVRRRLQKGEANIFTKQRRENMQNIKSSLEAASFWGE
Sequence of LIM domain kinase 1 (Homo sapiens) (P53667 whole entry, looked up, the tested form may be a part): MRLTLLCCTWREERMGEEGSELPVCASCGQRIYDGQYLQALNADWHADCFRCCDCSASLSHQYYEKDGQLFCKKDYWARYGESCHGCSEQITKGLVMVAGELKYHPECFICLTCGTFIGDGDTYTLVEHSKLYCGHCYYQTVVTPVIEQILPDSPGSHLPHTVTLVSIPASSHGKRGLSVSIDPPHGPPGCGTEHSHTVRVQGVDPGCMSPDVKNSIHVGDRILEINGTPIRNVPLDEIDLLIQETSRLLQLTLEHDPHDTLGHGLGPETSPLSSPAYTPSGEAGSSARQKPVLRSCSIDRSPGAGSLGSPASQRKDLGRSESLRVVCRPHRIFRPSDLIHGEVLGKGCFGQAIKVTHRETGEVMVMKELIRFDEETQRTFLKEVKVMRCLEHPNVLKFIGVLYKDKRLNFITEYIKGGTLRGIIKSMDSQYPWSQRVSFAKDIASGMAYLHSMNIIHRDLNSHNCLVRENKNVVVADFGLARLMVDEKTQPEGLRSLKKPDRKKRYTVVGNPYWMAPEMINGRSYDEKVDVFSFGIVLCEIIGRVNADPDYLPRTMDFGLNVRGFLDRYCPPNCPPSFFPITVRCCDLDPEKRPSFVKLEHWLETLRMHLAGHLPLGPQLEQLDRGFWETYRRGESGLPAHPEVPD
Sequence of Myotonin-protein kinase (Homo sapiens) (Q09013 whole entry): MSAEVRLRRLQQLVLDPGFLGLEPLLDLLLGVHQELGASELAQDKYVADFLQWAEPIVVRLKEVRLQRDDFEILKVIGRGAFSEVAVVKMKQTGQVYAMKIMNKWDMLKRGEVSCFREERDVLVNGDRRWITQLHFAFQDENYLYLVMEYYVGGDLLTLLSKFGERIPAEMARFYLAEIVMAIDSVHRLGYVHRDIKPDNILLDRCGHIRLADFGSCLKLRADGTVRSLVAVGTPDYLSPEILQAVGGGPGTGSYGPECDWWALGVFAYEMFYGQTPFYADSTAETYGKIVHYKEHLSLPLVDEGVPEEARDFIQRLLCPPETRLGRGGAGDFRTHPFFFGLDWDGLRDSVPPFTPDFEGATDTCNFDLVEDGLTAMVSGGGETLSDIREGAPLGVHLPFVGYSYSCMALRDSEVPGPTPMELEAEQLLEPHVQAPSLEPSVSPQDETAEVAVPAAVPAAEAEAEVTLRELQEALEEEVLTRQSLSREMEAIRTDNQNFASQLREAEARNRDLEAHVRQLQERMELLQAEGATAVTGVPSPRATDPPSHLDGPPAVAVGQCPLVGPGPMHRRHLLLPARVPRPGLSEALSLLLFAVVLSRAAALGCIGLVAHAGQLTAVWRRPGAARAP
Sequence of Mitogen-activated protein kinase 3 (Homo sapiens) (P27361 whole entry): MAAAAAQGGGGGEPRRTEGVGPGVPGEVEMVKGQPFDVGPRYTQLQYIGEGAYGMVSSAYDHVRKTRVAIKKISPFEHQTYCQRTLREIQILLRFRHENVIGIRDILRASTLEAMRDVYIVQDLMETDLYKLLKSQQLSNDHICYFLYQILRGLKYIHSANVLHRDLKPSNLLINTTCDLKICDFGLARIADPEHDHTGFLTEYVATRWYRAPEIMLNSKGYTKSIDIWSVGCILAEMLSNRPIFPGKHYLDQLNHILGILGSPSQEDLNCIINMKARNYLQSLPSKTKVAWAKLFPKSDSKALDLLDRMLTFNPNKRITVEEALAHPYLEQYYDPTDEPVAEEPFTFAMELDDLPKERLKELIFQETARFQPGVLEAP
Sequence of Phosphorylase b kinase gamma catalytic chain, skeletal muscle/heart isoform (Homo sapiens) (Q16816 whole entry, looked up, canonical isoform): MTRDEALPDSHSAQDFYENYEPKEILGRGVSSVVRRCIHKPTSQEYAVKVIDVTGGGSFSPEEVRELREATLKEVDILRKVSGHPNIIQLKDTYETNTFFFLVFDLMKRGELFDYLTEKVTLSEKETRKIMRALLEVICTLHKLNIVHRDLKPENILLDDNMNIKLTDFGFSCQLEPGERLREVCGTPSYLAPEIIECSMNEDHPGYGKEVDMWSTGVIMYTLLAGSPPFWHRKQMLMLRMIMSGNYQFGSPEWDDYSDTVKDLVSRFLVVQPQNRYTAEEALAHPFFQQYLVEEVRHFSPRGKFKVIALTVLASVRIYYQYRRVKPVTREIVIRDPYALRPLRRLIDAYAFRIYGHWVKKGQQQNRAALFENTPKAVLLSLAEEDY

Compound	residual activity [1]	residual activity [2]	residual activity [3]	residual activity [4]	residual activity [5]	residual activity [6]	residual activity [7]	residual activity [8]	residual activity [9]	residual activity [10]	residual activity [11]	residual activity [12]	% Inhibition of Control Specific Binding (Mean n=2) [13]	residual activity [14]	inhibition [15]	inhibition [16]	residual activity [17]	% Inhibition of Control Values (Mean n=2) [18]	residual activity [19]	residual activity [20]	further results
O=C(NS(=O)(=O)c1ccc(NCC2CCOCC2)c([N+](=O)[O-])c1)c1ccc(N2CCN(Cc3ccc(C(F)(F)F)cc3-c3ccc(Cl)cc3)CC2)cc1Oc1cnc2[nH]ccc2c1 [A-1210227]	100%	100%	100%	86%	100%	96%	100%	98%	90%	94%	100%	100%	-0.1%	80%	17.9%	8.95%	83%	19.7%	100%	97%	residual activity [21]: 90%; residual activity [22]: 98%; residual activity [23]: 100%; residual activity [24]: 100%; residual activity [25]: 100%; residual activity [26]: 100%; residual activity [27]: 84%; inhibition [28]: 9.67%; residual activity [29]: 85%; residual activity [30]: 97%; % Inhibition of Control Specific Binding (Mean n=2) [31]: -1.3%; residual activity [32]: 94%; residual activity [33]: 100%; % Inhibition of Control Specific Binding (Mean n=2) [34]: 10.2%; residual activity [35]: 100%
CO[C@H]1CC[C@H](CNc2ccc(S(=O)(=O)NC(=O)c3ccc(N4CCN(CC5=C(c6ccc(Cl)cc6)CC(C)(C)CC5)CC4)cc3Oc3cnc4[nH]ccc4c3)cc2[N+](=O)[O-])CC1 [A-1211212]	74%	96%	100%	58%	91%	100%	96%	100%	89%	100%	100%	96%	-5%	100%	23.6%	13.6%	89%	5.4%	100%	100%	residual activity [21]: 60%; residual activity [22]: 80%; residual activity [23]: 85%; residual activity [24]: 100%; residual activity [25]: 99%; residual activity [26]: 91%; residual activity [27]: 88%; inhibition [28]: 12.5%; residual activity [29]: 89%; residual activity [30]: 80%; % Inhibition of Control Specific Binding (Mean n=2) [31]: 1.3%; residual activity [32]: 84%; residual activity [33]: 99%; % Inhibition of Control Specific Binding (Mean n=2) [34]: 32%; residual activity [35]: 100%
